Experimental findings from ChEMBL document CHEMBL1806377, “Synthesis and evaluation of a radioiodinated trisaccharide derivative as a synthetic substrate for a sensitive N-acetylglucosaminyltransferase V radioassay” (Bioorg Med Chem, 2011) are described below.

Holding throughout (conditions): tested as the 125I-labelled form
Assay [1] addresses T1, Alpha-1,6-mannosylglycoprotein 6-beta-N-acetylglucosaminyltransferase A (Rattus norvegicus) (UniProt Q08834).
T1 sequence (whole entry): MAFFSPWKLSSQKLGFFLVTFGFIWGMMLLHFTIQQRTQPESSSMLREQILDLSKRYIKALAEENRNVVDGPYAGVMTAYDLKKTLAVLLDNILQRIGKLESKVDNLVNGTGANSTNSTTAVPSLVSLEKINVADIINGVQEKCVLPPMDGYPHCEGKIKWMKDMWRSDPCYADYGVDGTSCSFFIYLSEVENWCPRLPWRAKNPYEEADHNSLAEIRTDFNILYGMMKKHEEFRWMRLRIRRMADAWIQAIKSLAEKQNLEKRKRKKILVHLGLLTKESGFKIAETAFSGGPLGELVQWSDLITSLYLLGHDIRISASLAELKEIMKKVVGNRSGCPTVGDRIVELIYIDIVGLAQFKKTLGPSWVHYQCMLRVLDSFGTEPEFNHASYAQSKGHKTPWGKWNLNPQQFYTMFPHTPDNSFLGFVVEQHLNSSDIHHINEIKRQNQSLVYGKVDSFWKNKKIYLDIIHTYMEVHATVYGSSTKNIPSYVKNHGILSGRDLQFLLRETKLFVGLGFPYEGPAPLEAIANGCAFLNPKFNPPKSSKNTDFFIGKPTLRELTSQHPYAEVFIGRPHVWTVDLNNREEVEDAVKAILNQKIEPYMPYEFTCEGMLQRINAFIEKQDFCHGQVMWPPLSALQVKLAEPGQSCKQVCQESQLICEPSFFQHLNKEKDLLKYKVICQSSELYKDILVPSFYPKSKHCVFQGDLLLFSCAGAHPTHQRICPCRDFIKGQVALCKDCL
The experiment in a line: Activity at Wistar rat kidney GnT-V assessed per mg of protein after 4 hrs by radio HPLC analysis.

For assay [2], the target named is T1, Alpha-1,6-mannosylglycoprotein 6-beta-N-acetylglucosaminyltransferase A (Rattus norvegicus). As to the kind of experiment: Activity at Wistar rat lung GnT-V assessed per mg of protein after 4 hrs by radio HPLC analysis.
For assay [3] the target is unchanged. The experiment in a line: Activity at Wistar rat brain GnT-V assessed per mg of protein after 4 hrs by radio HPLC analysis.
For assay [4] the target is unchanged. As to the kind of experiment: Activity at Wistar rat serum GnT-V assessed per mg of protein after 4 hrs by radio HPLC analysis.
For assay [5] the target is unchanged. As to the kind of experiment: Activity at Wistar rat spleen GnT-V assessed per mg of protein after 4 hrs by radio HPLC analysis.
Assay [6] has the same target. As to the kind of experiment: Activity at Wistar rat liver GnT-V assessed per mg of protein after 4 hrs by radio HPLC analysis.
The target is the same in assay [7]. The experiment in a line: Activity at Wistar rat stomach GnT-V assessed per mg of protein after 4 hrs by radio HPLC analysis.
Assay [8] shares this target. The experiment in a line: Activity at Wistar rat intestine GnT-V assessed per mg of protein after 4 hrs by radio HPLC analysis.
The target is the same in assay [9]. As to the kind of experiment: Activity at Wistar rat heart GnT-V assessed per mg of protein after 4 hrs by radio HPLC analysis.

Structures are written as SMILES.

With `CC(=O)N[C@H]1[C@H](O[C@@H]2[C@@H](OC[C@H]3O[C@@H](OCCc4ccc(I)cc4)[C@H](O)[C@@H](O)[C@@H]3O)O[C@H](CO)[C@@H](O)[C@@H]2O)O[C@H](CO)[C@@H](O)[C@@H]1O`, the Activity turned out to be 671 pmol/h in assay [1]; 179 pmol/h in assay [2]; 261 pmol/h in assay [3]; 1280 pmol/h in assay [4]; 244 pmol/h in [5]; 48 pmol/h in [6]. Also, the Activity was 116 pmol/h in [7], 774 pmol/h in assay [8] and 31 pmol/h in assay [9].
